Measured values taken from US10383880B2 (Reset Therapeutics, Inc., priority 2012, dated 2019).

tested on: Per2-dLuc U2OS reporter cells; experiment: Per2 assay for evaluating the potency of test compounds (high-throughput circadian assay); format: cell-based; details: Homo sapiens, U2OS, stable U2OS reporter cells harboring Per2-dLuc; luminescence monitored over 4-5 days at 35° C.
Description: Compounds were screened by using a high-throughput circadian assay system as previously described in Zhang, E. E. et al. Cell, 2009, 139, 199-210. In brief, stable U2OS reporter cells harboring Per2-dLuc were plated at a density of 8,000 cells/well in Corning 96-well, solid white, flat bottom, TC-treated microplates (Corning®), and incubated for 24 hours at 37° C. in the presence of 5% CO2. The cells were then synchronized by serum shock by media exchange to a minimal explant media (10 mM HEPES (pH 7.0), 2% B27, 1×PSG (Invitrogen®), and 1.0 mM beetle luciferin (Promega®)) followed by the addition of the compounds of formula I dissolved in dimethylsulfoxide (0.5% final dimethylsulfoxide concentration). Gene expression was monitored by measuring luminescence (TecanR M200) over 4-5 days at 35° C. The period, amplitude, and phase of the associated circadian rhythms were determined using Multicycle™ software (Actimetrics, Inc). EC50 values of the compounds of formula I were calculated using Graphpad™ (Prism®).

| Compound | EC50 [nM] |
| --- | --- |
| Cc1ccc(S(=O)(=O)N(C)c2ccc(N(CC(O)Cn3c4ccccc4c4ccccc43)S(C)(=O)=O)cc2)cc1 (centres unmarked) [Compound 31, N-(4-(N-(3-(9H-Carbazol-9-yl)-2-hydroxypropyl)methylsulfonamido)phenyl)-N,4-dimethylbenzenesulfonamide] | 1400 |
| CC(C)(C(O)CN1CCCS1(=O)=O)n1c2ccccc2c2ccccc21 (centres unmarked) [Compound 114, 2-(3-(9H-Carbazol-9-yl)-2-hydroxy-3-methylbutyl)-isothiazolidine-1,1-dioxide] | 521 |
| CS(=O)(=O)N(Cc1ccco1)CC(O)Cn1c2cc(F)ccc2c2ccc(F)cc21 (centres unmarked) [Compound 93, N-(3-(2,7-Difluoro-9H-carbazol-9-yl)-2-hydroxypropyl)-N-(furan-2-ylmethyl)methanesulfonamide] | 2890 |
| CC1(N(CC(O)Cn2c3ccc(F)cc3c3cc(F)ccc32)S(C)(=O)=O)CCCC1 (centres unmarked) [Compound 196, N-(3-(3,6-Difluoro-9H-carbazol-9-yl)-2-hydroxypropyl)-N-(1-methylcyclopentyl)methanesulfonamide] | 149 |
| CC(O)(CN1CCCN(C2CCC2)S1(=O)=O)Cn1c2ccc(F)cc2c2cc(F)ccc21 (centres unmarked) [Compound 229, 2-(3-(3,6-Difluoro-9H-carbazol-9-yl)-2-hydroxy-2-methylpropyl)-6-cyclobutyl-1,2,6-thiadiazinane-1,1-dioxide] | 4980 |
| CC1CC(N(CC(O)Cn2c3ccccc3c3ccccc32)S(C)(=O)=O)C1 (centres unmarked) [Compound 131, N-(3-(9H-Carbazol-9-yl)-2-hydroxypropyl)-N-(3-methylcyclobutyl)methanesulfonamide] | 79 |
| CC1CCCC1N(CC(O)Cn1c2ccccc2c2ccccc21)S(C)(=O)=O (centres unmarked) [Compound 136, N-(3-(9H-Carbazol-9-yl)-2-hydroxypropyl)-N-(2-methylcyclopentyl)methanesulfonamide] | 113 |
| CCc1ccc(N(CC(O)Cn2c3ccc(F)cc3c3cc(F)ccc32)S(C)(=O)=O)cc1 (centres unmarked) [Compound 201, N-(3-(3,6-Difluoro-9H-carbazol-9-yl)-2-hydroxypropyl)-N-(4-ethylphenyl)methanesulfonamide] | 1570 |
| CC(C)N1CCN(CC(C)(O)Cn2c3ccc(F)cc3c3cc(F)ccc32)S1(=O)=O (centres unmarked) [Compound 225] | 3090 |
| O=S1(=O)CCCN1CC(O)Cn1c2ccc(F)cc2c2cc(F)ccc21 (centres unmarked) [Compound 87, N-(3-(3,6-Difluoro-9H-carbazol-9-yl)-2-hydroxypropyl)-isothiazolidine-1,1-dioxide] | 20 |
| CC(C)N(CC(O)Cn1c2cc(F)ccc2c2ccc(F)cc21)S(C)(=O)=O (centres unmarked) [Compound 159, N-(3-(2,7-Difluoro-9H-carbazol-9-yl)-2-hydroxypropyl)-N-isopropylmethanesulfonamide] | 505 |
| CS(=O)(=O)N(CC(O)Cn1c2ccc(F)cc2c2cc(F)ccc21)C1CC1 (centres unmarked) [Compound 118, N-Cyclopropyl-N-(3-(3,6-difluoro-9H-carbazol-9-yl)-2-hydroxypropyl)methanesulfonamide] | 81 |
| CC1CCCC1N(CC(O)Cn1c2ccc(F)cc2c2cc(F)ccc21)S(C)(=O)=O (centres unmarked) [Compound 193A, N-(3-(3,6-Difluoro-9H-carbazol-9-yl)-2-hydroxypropyl)-N-(2-methylcyclopentyl)methanesulfonamide] | 427 |
| Cc1cccc(N(CC(O)Cn2c3ccccc3c3ccccc32)S(C)(=O)=O)c1 (centres unmarked) [Compound 63, N-(3-(9H-Carbazol-9-yl)-2-hydroxypropyl)-N-m-tolylmethanesulfonamide] | 199 |
| CC(C)N(CC(O)Cn1c2ccc(F)cc2c2ccc(F)cc21)S(C)(=O)=O (centres unmarked) [Compound 165, N-(3-(2,6-Difluoro-9H-carbazol-9-yl)-2-hydroxypropyl)-N-isopropylmethanesulfonamide] | 95 |
| O=S(=O)(N(Cc1ccco1)CC(O)Cn1c2ccccc2c2ccccc21)C(F)(F)F (centres unmarked) [Compound 83, N-(3-(9H-Carbazol-9-yl)-2-hydroxypropyl)-1,1,1-trifluoro-N-(furan-2-ylmethyl)methanesulfonamide] | 413 |
| CS(=O)(=O)N(CC(O)Cn1c2ccccc2c2ccccc21)c1ccccc1Cl (centres unmarked) [Compound 77, N-(3-(9H-Carbazol-9-yl)-2-hydroxypropyl)-N-(2-chlorophenyl)methanesulfonamide] | 750 |
| CC(O)(CN1CCCNS1(=O)=O)Cn1c2ccc(F)cc2c2cc(F)ccc21 (centres unmarked) [Compound 172, 2-(3-(3,6-Difluoro-9H-carbazol-9-yl)-2-hydroxy-2-methylpropyl)-1,2,6-thiadiazinane-1,1-dioxide] | 375 |
| CS(=O)(=O)N(CC(O)Cn1c2ccccc2c2ccccc21)c1ccc(C#N)cc1 (centres unmarked) [Compound 80, N-(3-(9H-Carbazol-9-yl)-2-hydroxypropyl)-N-(4-cyanophenyl)methanesulfonamide] | 4220 |
| CC1(N(CC(O)Cn2c3ccccc3c3ccccc32)S(C)(=O)=O)COC1 (centres unmarked) [Compound 144, N-(3-(9H-Carbazol-9-yl)-2-hydroxypropyl)-N-(3-methyloxetan-3-yl)methanesulfonamide] | 2160 |
| O=S1(=O)CCCN1CC(O)Cn1c2ccc(F)cc2c2ccc(F)cc21 (centres unmarked) [Compound 101, N-(3-(2,6-Difluoro-9H-carbazol-9-yl)-2-hydroxypropyl)-isothiazolidine-1,1-dioxide] | 50 |
| O=S(=O)(CC1CC1)N(Cc1ccco1)CC(O)Cn1c2ccccc2c2ccccc21 (centres unmarked) [Compound 15, N-(3-(9H-Carbazol-9-yl)-2-hydroxypropyl)-1-cyclopropyl-N-(furan-2-ylmethyl)methanesulfonamide] | 592 |
| CC1(N(CC(O)Cn2c3ccccc3c3ccccc32)S(C)(=O)=O)CC1 (centres unmarked) [Compound 137, N-(3-(9H-Carbazol-9-yl)-2-hydroxypropyl)-N-(1-methylcyclopropyl)methanesulfonamide] | 76 |
| CC(C)S(=O)(=O)N(Cc1ccco1)CC(O)Cn1c2ccccc2c2ccccc21 (centres unmarked) [Compound 82, N-(3-(9H-Carbazol-9-yl)-2-hydroxypropyl)-N-(furan-2-ylmethyl)propane-2-sulfonamide] | 158 |
| Cn1ccc2ccc(N(CC(O)Cn3c4ccccc4c4ccccc43)S(C)(=O)=O)cc21 (centres unmarked) [Compound 66, N-(3-(9H-Carbazol-9-yl)-2-hydroxypropyl)-N-(1-methyl-1H-indol-6-yl)methanesulfonamide] | 9900 |
| O=S1(=O)N(CC(O)Cn2c3ccc(F)cc3c3cc(F)ccc32)CCCN1C1CCC1 (centres unmarked) [Compound 228, 2-(3-(3,6-Difluoro-9H-carbazol-9-yl)-2-hydroxypropyl)-6-cyclobutyl-1,2,6-thiadiazinane-1,1-dioxide] | 3420 |
| O=S1(=O)NCCCN1CC(O)Cn1c2ccccc2c2ccccc21 (centres unmarked) [Compound 123, 2-(3-(9H-Carbazol-9-yl)-2-hydroxypropyl)-1,2,6-thiadiazinane-1,1-dioxide] | 33 |

same assay, conditions: stable U2OS reporter cells harboring Per2-dLuc; luminescence monitored over 4-5 days at 35° C.

| Compound | EC50 [nM] |
| --- | --- |
| CC1CCCC1N(CC(O)Cn1c2ccc(F)cc2c2cc(F)ccc21)S(C)(=O)=O (single isomer, unassigned) [Compound 193C, N-(3-(3,6-Difluoro-9H-carbazol-9-yl)-2-hydroxypropyl)-N-(2-methylcyclopentyl)methanesulfonamide] | 4470 |
| CS(=O)(=O)N(CC(O)Cn1c2ccccc2c2ccccc21)C1CC2CCC1O2 (single isomer, unassigned) [Compound 140B, N-(3-(9H-Carbazol-9-yl)-2-hydroxypropyl)-N-(7-oxabicyclo[2.2.1]heptan-2-yl)methanesulfonamide] | 823 |
